Measurements taken from patent US8133998B2, “Bicyclic pyrimidine derivatives as calcium channel blockers” (Zalicus Pharmaceuticals, Ltd., priority 2007, dated 2012).

Experiments:
[1] = target: T1, human α1H T-type channels (Homo sapiens, UniProt O95180); assay: T-type calcium channel block, whole cell patch clamp in HEK cells; assay type: cell-based; settings: HEK cells stably expressing human α1H; measured at 1 μM drug; mainly non-inactivated protocol
T1 construct: expressed in transfected cells; host or cells: HEK 293
T1 sequence (O95180 whole entry): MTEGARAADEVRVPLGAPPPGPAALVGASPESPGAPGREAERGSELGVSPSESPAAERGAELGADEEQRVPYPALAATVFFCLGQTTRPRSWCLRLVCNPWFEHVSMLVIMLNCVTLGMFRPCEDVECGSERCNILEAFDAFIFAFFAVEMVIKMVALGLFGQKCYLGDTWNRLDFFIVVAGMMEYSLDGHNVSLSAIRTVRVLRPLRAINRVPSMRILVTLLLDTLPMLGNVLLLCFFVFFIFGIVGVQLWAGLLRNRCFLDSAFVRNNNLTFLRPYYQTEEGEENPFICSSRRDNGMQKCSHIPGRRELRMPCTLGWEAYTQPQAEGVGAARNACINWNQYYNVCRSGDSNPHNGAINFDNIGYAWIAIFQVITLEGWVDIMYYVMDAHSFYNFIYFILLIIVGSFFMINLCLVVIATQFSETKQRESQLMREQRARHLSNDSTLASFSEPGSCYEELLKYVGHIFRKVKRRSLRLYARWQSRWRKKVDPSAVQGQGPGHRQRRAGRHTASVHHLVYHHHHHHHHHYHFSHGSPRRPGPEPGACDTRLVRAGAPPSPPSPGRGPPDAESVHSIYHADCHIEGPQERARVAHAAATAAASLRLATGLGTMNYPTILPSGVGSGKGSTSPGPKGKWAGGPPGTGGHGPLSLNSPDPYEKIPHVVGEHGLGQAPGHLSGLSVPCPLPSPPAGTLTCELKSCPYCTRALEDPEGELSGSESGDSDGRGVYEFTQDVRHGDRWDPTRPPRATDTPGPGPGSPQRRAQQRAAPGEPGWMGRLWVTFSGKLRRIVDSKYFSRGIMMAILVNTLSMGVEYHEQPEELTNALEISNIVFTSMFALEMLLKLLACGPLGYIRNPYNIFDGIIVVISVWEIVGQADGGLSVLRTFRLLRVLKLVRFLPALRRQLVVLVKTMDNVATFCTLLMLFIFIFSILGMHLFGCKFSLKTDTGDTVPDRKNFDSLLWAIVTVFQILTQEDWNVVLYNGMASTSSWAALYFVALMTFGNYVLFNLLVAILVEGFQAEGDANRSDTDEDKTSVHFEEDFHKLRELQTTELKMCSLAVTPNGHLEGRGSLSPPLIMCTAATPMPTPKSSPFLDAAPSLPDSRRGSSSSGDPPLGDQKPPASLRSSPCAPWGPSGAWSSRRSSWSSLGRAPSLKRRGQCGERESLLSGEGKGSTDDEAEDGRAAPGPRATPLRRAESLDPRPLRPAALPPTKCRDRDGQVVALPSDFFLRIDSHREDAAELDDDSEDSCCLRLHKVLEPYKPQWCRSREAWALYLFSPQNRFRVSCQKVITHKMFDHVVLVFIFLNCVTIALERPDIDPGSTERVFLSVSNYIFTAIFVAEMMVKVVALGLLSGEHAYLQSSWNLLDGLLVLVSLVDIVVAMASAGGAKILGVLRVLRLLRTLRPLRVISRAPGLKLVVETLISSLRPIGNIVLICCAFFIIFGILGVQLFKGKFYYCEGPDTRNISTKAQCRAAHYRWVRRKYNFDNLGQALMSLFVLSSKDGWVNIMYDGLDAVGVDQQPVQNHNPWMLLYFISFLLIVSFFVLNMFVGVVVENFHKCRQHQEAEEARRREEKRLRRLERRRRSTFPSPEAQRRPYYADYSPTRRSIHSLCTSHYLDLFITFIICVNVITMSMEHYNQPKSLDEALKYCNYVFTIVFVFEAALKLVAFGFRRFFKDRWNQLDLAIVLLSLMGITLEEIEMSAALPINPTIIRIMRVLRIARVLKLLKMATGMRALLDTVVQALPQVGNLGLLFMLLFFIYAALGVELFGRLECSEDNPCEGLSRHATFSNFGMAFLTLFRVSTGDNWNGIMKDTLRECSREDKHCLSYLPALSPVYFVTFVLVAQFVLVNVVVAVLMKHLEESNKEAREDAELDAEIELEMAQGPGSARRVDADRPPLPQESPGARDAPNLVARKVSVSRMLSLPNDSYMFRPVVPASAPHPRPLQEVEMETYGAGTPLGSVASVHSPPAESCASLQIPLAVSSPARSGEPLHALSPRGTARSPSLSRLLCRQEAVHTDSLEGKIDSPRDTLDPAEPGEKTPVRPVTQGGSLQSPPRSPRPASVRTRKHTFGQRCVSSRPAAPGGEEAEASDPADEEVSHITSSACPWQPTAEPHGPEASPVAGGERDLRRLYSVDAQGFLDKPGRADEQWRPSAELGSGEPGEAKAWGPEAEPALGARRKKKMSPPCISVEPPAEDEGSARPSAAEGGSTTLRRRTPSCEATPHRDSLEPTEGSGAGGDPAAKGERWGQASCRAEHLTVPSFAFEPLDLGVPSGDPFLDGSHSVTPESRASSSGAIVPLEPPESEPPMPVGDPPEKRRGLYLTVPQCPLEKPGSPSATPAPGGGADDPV
Description: (§1) T-type calcium channel blocking activity was assayed in human embryonic kidney cells, HEK 293, stably transfected with the T-type calcium channel subunits. Briefly, cells were cultured in Dulbecco's modified eagle medium (DMEM) supplemented with 10% fetal bovine serum, 200 U/ml penicillin and 0.2 mg/ml streptomycin at 37° C. with 5% CO2. At 85% confluency cells were split with 0.25% trypsin/1 mM EDTA and plated at 10% confluency on glass coverslips. At 12 hours the medium was replaced and the cells stably transfected using a standard calcium phosphate protocol and the appropriate calcium channel cDNA's. Fresh DMEM was supplied and the cells transferred to 28° C./5% CO2. Cells were incubated for 1 to 2 days prior to whole cell recording.
(§2) Standard patch-clamp techniques were employed to identify blockers of T-type currents. Briefly, previously described HEK cell lines stably expressing human α1G, α1H and α1I T-type channels were used for all the recordings (passage #: 4-20, 37° C., 5% CO2). Whole cell patch clamp experiments were performed using an Axopatch 200B amplifier (Axon Instruments, Burlingame, Calif.) linked to a personal computer equipped with pCLAMP software. Data were analyzed using Clampfit (Axon Instruments) and SigmaPlot 4.0 (Jandel Scientific). To obtain T-type currents, plastic dishes containing semi-confluent cells were positioned on the stage of a ZEISS AXIOVERT S100 microscope after replacing the culture medium with external solution (see below). Whole-cell patches were obtained using pipettes (borosilicate glass with filament, O.D.: 1.5 mm, I.D.: 0.86 mm, 10 cm length), fabricated on a SUTTER P-97 puller with resistance values of ˜5 MΩ (see below for internal solution).
(§3) In the non-inactivating protocol, the holding potential is set at −110 mV and with a pre-pulse at −100 mV for 1 second prior to the test pulse at −40 mV for 50 ms. In the inactivation protocol, the pre-pulse is at approximately −85 mV for 1 second, which inactivates about 15% of the T-type channels.
(§4) Test compounds were dissolved in external solution, 0.1-0.01% DMSO. After ˜10 min rest, they were applied by gravity close to the cell using a WPI microfil tubing. The “non-inactivated” pre-pulse was used to examine the resting block of a compound. The “inactivated” protocol was employed to study voltage-dependent block. However, the initial data shown below were mainly obtained using the non-inactivated protocol only. Kd values are shown for various compounds of the invention in Table 4 measured at 1 μM for the drug of interest except for compound 18 which was measured at 200 nM.

[2] = target: T2, human α1G T-type channels (Homo sapiens, UniProt O43497); assay: as above; assay type: cell-based; settings: HEK cells stably expressing human α1G; measured at 1 μM drug; mainly non-inactivated protocol
T2 construct: expressed in transfected cells; host or cells: HEK 293
T2 sequence (O43497 whole entry): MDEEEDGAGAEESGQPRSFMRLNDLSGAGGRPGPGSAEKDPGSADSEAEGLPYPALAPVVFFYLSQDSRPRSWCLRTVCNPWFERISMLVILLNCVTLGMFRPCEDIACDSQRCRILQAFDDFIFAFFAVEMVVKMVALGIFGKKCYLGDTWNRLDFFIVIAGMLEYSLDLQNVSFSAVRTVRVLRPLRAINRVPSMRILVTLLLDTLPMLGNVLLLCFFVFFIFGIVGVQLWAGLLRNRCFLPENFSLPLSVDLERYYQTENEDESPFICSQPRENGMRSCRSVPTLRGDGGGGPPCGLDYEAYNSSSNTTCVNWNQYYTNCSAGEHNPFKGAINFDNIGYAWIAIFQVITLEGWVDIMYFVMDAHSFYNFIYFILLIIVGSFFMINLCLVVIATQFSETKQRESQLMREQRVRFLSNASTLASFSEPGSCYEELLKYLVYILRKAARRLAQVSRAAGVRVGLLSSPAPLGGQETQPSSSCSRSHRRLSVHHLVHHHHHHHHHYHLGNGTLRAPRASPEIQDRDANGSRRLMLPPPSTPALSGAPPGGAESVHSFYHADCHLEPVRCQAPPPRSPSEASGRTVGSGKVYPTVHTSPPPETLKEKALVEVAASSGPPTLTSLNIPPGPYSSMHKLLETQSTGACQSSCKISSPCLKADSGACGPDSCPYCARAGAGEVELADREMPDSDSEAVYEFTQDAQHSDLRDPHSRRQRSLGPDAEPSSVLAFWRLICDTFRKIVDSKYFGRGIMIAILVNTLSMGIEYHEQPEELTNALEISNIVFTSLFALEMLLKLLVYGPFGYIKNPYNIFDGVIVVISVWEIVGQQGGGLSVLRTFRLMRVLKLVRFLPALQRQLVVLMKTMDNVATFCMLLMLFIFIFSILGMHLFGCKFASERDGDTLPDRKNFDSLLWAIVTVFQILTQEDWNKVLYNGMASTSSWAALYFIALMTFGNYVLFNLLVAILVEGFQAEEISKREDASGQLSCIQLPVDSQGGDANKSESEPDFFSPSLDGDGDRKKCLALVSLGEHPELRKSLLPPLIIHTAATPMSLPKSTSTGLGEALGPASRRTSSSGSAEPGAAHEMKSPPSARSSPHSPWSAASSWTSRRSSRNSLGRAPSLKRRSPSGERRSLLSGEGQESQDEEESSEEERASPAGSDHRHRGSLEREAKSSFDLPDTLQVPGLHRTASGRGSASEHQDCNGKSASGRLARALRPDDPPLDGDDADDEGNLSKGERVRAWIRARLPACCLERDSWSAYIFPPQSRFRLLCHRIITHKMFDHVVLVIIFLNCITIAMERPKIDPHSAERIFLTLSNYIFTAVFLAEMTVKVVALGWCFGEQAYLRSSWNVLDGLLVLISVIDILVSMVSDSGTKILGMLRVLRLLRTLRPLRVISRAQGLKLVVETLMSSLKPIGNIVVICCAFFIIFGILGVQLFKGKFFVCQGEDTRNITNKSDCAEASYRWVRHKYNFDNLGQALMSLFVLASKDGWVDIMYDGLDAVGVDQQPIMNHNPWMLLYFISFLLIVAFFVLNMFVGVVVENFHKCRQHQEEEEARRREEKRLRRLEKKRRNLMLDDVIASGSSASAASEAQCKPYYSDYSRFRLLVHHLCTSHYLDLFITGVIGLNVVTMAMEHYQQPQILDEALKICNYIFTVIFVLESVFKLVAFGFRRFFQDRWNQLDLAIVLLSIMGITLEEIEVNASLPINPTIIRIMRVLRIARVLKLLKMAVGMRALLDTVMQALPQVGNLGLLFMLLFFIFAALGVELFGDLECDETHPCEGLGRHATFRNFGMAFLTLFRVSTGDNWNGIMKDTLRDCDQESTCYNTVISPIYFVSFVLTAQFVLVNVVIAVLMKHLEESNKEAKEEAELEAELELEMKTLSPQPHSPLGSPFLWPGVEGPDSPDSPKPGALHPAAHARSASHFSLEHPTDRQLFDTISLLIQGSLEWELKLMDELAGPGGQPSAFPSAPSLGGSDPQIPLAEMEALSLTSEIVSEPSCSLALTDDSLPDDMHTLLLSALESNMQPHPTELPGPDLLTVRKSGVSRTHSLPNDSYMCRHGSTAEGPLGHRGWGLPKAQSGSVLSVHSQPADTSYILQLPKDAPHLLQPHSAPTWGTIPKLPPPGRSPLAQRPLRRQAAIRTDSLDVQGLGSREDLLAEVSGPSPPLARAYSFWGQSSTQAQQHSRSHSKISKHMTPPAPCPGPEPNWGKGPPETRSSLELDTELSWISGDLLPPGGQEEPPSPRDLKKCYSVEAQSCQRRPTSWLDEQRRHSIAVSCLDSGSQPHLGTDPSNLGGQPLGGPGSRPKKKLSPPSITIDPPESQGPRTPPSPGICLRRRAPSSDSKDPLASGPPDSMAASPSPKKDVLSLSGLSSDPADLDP
Description: as §1, §2, §3, §4

Compound | Kd [1] | Kd [2]
CCN(CC)C(=O)Cn1cnc2sc(C(=O)N3CCN(c4cccc(F)c4)CC3)c(C)c2c1=O [Compound 7, N,N-diethyl-2-(6-(4-(3-fluorophenyl)piperazine-1-carbonyl)-5-methyl-4-oxothieno[2,3-d]pyrimidin-3(4H)-yl)acetamide] | 1.14 µM | –
Cc1c(C(=O)N2CCN(c3ccccc3)CC2)sc2ncn(C(C)C(=O)NC3CCCC3)c(=O)c12 (stereo not drawn) [Compound 46, N-cyclopentyl-2-(5-methyl-4-oxo-6-(4-phenylpiperazine-1-carbonyl)thieno[2,3-d]pyrimidin-3(4H)-yl)propanamide] | 0.52 µM | –
Cc1c(C(=O)N2CCN(c3ccccc3F)CC2)sc2ncn(CCN3CCCC3=O)c(=O)c12 [Compound 95, 6-(4-(2-fluorophenyl)piperazine-1-carbonyl)-5-methyl-3-(2-(2-oxopyrrolidin-1-yl)ethyl)thieno[2,3-d]pyrimidin-4(3H)-one] | – | 2.66 µM
Cc1c(C(=O)N2CC[C@H](F)C2)sc2ncn(CC(=O)Nc3cc(C(F)(F)F)cc(C(F)(F)F)c3)c(=O)c12 [Compound 71, (S)-N-(3,5-bis(trifluoromethyl)phenyl)-2-(5-methyl-4-oxo-6-(3-fluoropyrrolidine-1-carbonyl)thieno[2,3-d]pyrimidin-3(4H)-yl)acetamide] | – | > 74.3 µM
Cc1c(C(=O)N2CCN(c3ccc(F)cc3)CC2)sc2ncn(CC(=O)N3CC[C@H](F)C3)c(=O)c12 [Compound 91, (S)-6-(4-(4-fluorophenyl)-piperazine-1-carbonyl)-3-(2-(3-fluoropyrrolidin-1-yl)-2-oxoethyl)-5-methylthieno[2,3-d]pyrimidin-4(3H)-one] | 6.31 µM | –
Cc1c(C(=O)N2CCN(c3ccccc3)CC2)sc2ncn(CC(=O)NC3CCCC3)c(=O)c12 [Compound 41, N-cyclopentyl-2-(5-methyl-4-oxo-6-(4-phenylpiperazine-1-carbonyl)thieno[2,3-d]pyrimidin-3(4H)-yl)acetamide] | 0.83 µM | –
Cc1c(C(=O)N2CCN(c3cccc([N+](=O)[O-])c3)CC2)sc2ncn(CC(=O)NC3CCCCC3)c(=O)c12 [Compound 29, N-cyclohexyl-2-(5-methyl-6-(4-(3-nitrophenyl)piperazine-1-carbonyl)-4-oxothieno[2,3-d]pyrimidin-3(4H)-yl)acetamide] | 0.95 µM | –
Cc1c(C(=O)N2CCN(c3ccc(F)cc3)CC2)sc2ncn(CC(=O)N3CCC(F)(F)C3)c(=O)c12 [Compound 90] | 2.44 µM | –
O=C(Cn1cnc2ccc(C(=O)N3CCN(c4cccc(Cl)c4)CC3)cc2c1=O)N1CCCC1 [Compound 115, 6-(4-(3-chlorophenyl)piperazine-1-carbonyl)-3-(2-oxo-2-(pyrrolidin-1-yl)ethyl) quinazolin-4(3H)-one] | – | 4.28 µM
Cc1c(C(=O)N2CCN(c3ccc(Cl)cc3)CC2)sc2ncn(CCN3CCCC3=O)c(=O)c12 [Compound 94, 6-(4-(4-chlorophenyl)piperazine-1-carbonyl)-5-methyl-3-(2-(2-oxopyrrolidin-1-yl)ethyl)thieno[2,3-d]pyrimidin-4(3H)-one] | – | 20.3 µM
Cc1c(C(=O)NC(C)(C)C)sc2ncn(CC(=O)Nc3cc(C(F)(F)F)cc(C(F)(F)F)c3)c(=O)c12 [Compound 68, 3-(2-(3,5-bis(trifluoromethyl)phenylamino)-2-oxoethyl)-N-tert-butyl-5-methyl-4-oxo-3,4-dihydrothieno[2,3-d]pyrimidine-6-carboxamide] | – | 0.4 µM
Cc1c(C(=O)N2CCN(c3ccccc3F)CC2)sc2ncn(CC(=O)N3CCC(F)(F)C3)c(=O)c12 [Compound 79, 3-(2-(3,3-difluoropyrrolidin-1-yl)-2-oxoethyl)-6-(4-(2-fluorophenyl)piperazine-1-carbonyl)-5-methylthieno[2,3-d]pyrimidin-4(3H)-one] | 4.64 µM | –
Cc1c(C(=O)N2CCN(c3ccccc3F)CC2)sc2ncn(C(C)C(=O)NC3CCCC3)c(=O)c12 (stereo not drawn) [Compound 47, N-cyclopentyl-2-(6-(4-(2-fluorophenyl)piperazine-1-carbonyl)-5-methyl-4-oxothieno[2,3-d]pyrimidin-3(4H)-yl)propanamide] | 0.56 µM | –
Cc1c(C(=O)N2CCCC2)sc2ncn(CC(=O)Nc3cc(C(F)(F)F)cc(C(F)(F)F)c3)c(=O)c12 [Compound 70, N-(3,5-bis(trifluoromethyl)phenyl)-2-(5-methyl-4-oxo-6-(pyrrolidine-1-carbonyl)thieno[2,3-d]pyrimidin-3(4H)-yl)acetamide] | – | 5.31 µM
Cc1c(C(=O)N2CCC(C(F)(F)F)CC2)sc2ncn(CC(=O)Nc3cccc(C(F)(F)F)c3)c(=O)c12 [Compound 63] | – | 1.84 µM
Cc1c(C(=O)N2CCN(c3cccc(Cl)c3)CC2)sc2ncn(CC(=O)N3CCCC3)c(=O)c12 [Compound 136, 6-(4-(3-chloro-phenyl)piperazine-1-carbonyl)-5-methyl-3-(2-oxo-2-(pyrrolidin-1-yl)ethyl)thieno[2,3-d]pyrimidin-4(3H)-one] | – | 1.56 µM
Cc1c(C(=O)N2CCN(c3ccccc3)CC2)sc2ncn(CC(=O)NC(C)(C)C)c(=O)c12 [Compound 13, N-tert-butyl-2-(5-methyl-4-oxo-6-(4-phenylpiperazine-1-carbonyl)thieno[2,3-d]pyrimidin-3(4H)-yl)acetamide] | 2.14 µM | –
CCN(CC)C(=O)Cn1cnc2sc(C(=O)N3CCN(c4ccccc4C(F)(F)F)CC3)c(C)c2c1=O [Compound 9, N,N-diethyl-2-(5-methyl-4-oxo-6-(4-(2-(trifluoromethyl)phenyl)piperazine-1-carbonyl)thieno[2,3-d]pyrimidin-3(4H)-yl)acetamide] | – | 3.73 µM
Cc1c(C(N)=O)sc2ncn(CC(=O)Nc3cc(C(F)(F)F)cc(C(F)(F)F)c3)c(=O)c12 [Compound 67, 3-(2-(3,5-bis(trifluoromethyl)phenylamino)-2-oxoethyl)-5-methyl-4-oxo-3,4-dihydrothieno[2,3-d]pyrimidine-6-carboxamide] | – | 2.8 µM
CCN(CC)C(=O)Cn1cnc2sc(C(=O)N3CCN(c4ccccc4Cl)CC3)c(C)c2c1=O [Compound 4, 2-(6-(4-(2-chlorophenyl)piperazine-1-carbonyl)-5-methyl-4-oxothieno[2,3-d]pyrimidin-3(4H)-yl)-N,N-diethylacetamide] | – | 4.12 µM
CCN(CC(F)(F)F)C(=O)Cn1cnc2sc(C(=O)N3CCN(c4ccccc4F)CC3)c(C)c2c1=O [Compound 128, N-ethyl-2-(6-(4-(2-fluoro-phenyl)piperazine-1-carbonyl)-5-methyl-4-oxothieno[2,3-d]pyrimidin-3(4H)-yl)-N-(2,2,2-trifluoroethyl)acetamide] | – | 3.6 µM
Cc1c(C(=O)N2CCN(c3cc(C(F)(F)F)cc(C(F)(F)F)c3)CC2)sc2ncn(CCN3CCCC3=O)c(=O)c12 [Compound 93, 6-(4-(3,5-bis(trifluoromethyl)phenyl)piperazine-1-carbonyl)-5-methyl-3-(2-(2-oxopyrrolidin-1-yl)ethyl)thieno[2,3-d]pyrimidin-4(3H)-one] | – | 2.7 µM
Cc1c(C(=O)N2CCN(c3ccccc3F)CC2)sc2ncn(CC(=O)Nc3ccccc3)c(=O)c12 [Compound 51, 2-(6-(4-(2-fluorophenyl)piperazine-1-carbonyl)-5-methyl-4-oxothieno[2,3-d]pyrimidin-3(4H)-yl)-N-phenylacetamide] | 0.57 µM | –
Cc1c(C(=O)N2CCN(c3ccccc3F)CC2)sc2ncn(C(C)C(=O)NC3CCCCC3)c(=O)c12 (stereo not drawn) [Compound 34, N-cyclohexyl-2-(6-(4-(2-fluorophenyl)piperazine-1-carbonyl)-5-methyl-4-oxothieno[2,3-d]pyrimidin-3(4H)-yl)propanamide] | 0.44 µM | –
